Data as given in the NIST ThermoML archive (doi:10.1016/j.jct.2016.06.034).

Experiment: mn = molality of the nth substance listed, in mol/kg
Details: 84.5 kPa, Liquid; for electrical conductivity: Alternating current cell with electrodes; for speed of sound: Frequency=3 MHz, Sing-around technique in a fixed-path interferometer; for mass density: Vibrating tube method

CCCCCCCCCCn1cc[n+](C)c1.[Br-] [1-decyl-3-methylimidazolium bromide] + O
Details	electrical conductivity [S/m]	mass density [kg/m3]	speed of sound [m/s]
298.15 K, m1 = 0.0095	–	997.416	1498.6
298.15 K, m1 = 0.01379	–	997.587	1499.5
298.15 K, m1 = 0.01652	–	997.693	1500
298.15 K, m1 = 0.02179	–	997.899	1500.9
298.15 K, m1 = 0.02615	–	998.07	1501.7
298.15 K, m1 = 0.03106	–	998.263	1502.5
298.15 K, m1 = 0.03338	–	998.353	1502.9
298.15 K, m1 = 0.03397	0.283	–	–
298.15 K, m1 = 0.03638	0.3	–	–
298.15 K, m1 = 0.03819	–	998.54	1503.7
298.15 K, m1 = 0.03875	0.317	–	–
298.15 K, m1 = 0.04039	0.327	–	–
298.15 K, m1 = 0.0406	–	998.636	1503.9
298.15 K, m1 = 0.04217	0.338	–	–
298.15 K, m1 = 0.04332	–	998.732	1504.2
298.15 K, m1 = 0.04391	0.346	–	–
298.15 K, m1 = 0.04608	0.354	–	–
298.15 K, m1 = 0.04614	–	998.829	1504.4
298.15 K, m1 = 0.04825	0.361	–	–
298.15 K, m1 = 0.05051	0.368	–	–
298.15 K, m1 = 0.0526	0.373	–	–
298.15 K, m1 = 0.05487	0.379	–	–
298.15 K, m1 = 0.05515	–	999.136	1504.7
298.15 K, m1 = 0.05749	0.386	–	–
298.15 K, m1 = 0.06017	0.392	–	–
298.15 K, m1 = 0.06271	0.398	–	–
298.15 K, m1 = 0.06396	–	999.429	1504.8
298.15 K, m1 = 0.07815	–	999.895	1504.9
298.15 K, m1 = 0.122	–	1001.31	1505.1
298.15 K, m1 = 0.1726	–	1002.91	1505.4
298.15 K, m1 = 0.2247	–	1004.51	1505.7
298.15 K, m1 = 0.2539	–	1005.39	1505.9
303.15 K, m1 = 1e-05	0.00018	–	–
303.15 K, m1 = 3e-05	0.000342	–	–
303.15 K, m1 = 4e-05	0.000511	–	–
303.15 K, m1 = 5e-05	0.000676	–	–
303.15 K, m1 = 7e-05	0.000835	–	–
303.15 K, m1 = 8e-05	0.001	–	–
303.15 K, m1 = 0.00015	0.00183	–	–
303.15 K, m1 = 0.00023	0.00267	–	–
303.15 K, m1 = 0.00038	0.00443	–	–
303.15 K, m1 = 0.00053	0.00608	–	–
303.15 K, m1 = 0.00082	0.00939	–	–
303.15 K, m1 = 0.00142	0.016	–	–
303.15 K, m1 = 0.0023	0.0256	–	–
303.15 K, m1 = 0.00351	0.0384	–	–
303.15 K, m1 = 0.00463	0.0502	–	–
303.15 K, m1 = 0.00617	0.0665	–	–
303.15 K, m1 = 0.00896	0.0945	–	–
303.15 K, m1 = 0.0095	–	–	1510.8
303.15 K, m1 = 0.01168	0.121	–	–
303.15 K, m1 = 0.01379	–	–	1511.6
303.15 K, m1 = 0.01458	0.148	–	–
303.15 K, m1 = 0.01652	–	–	1512
303.15 K, m1 = 0.01746	0.175	–	–
303.15 K, m1 = 0.01986	0.197	–	–
303.15 K, m1 = 0.02179	–	–	1512.8
303.15 K, m1 = 0.02235	0.218	–	–
303.15 K, m1 = 0.0248	0.24	–	–
303.15 K, m1 = 0.02615	–	–	1513.5
303.15 K, m1 = 0.0272	0.26	–	–
303.15 K, m1 = 0.02958	0.28	–	–
303.15 K, m1 = 0.03106	–	–	1514.3
303.15 K, m1 = 0.03192	0.299	–	–
303.15 K, m1 = 0.03338	–	–	1514.7
303.15 K, m1 = 0.03356	0.312	–	–
303.15 K, m1 = 0.0353	0.326	–	–
303.15 K, m1 = 0.03765	0.345	–	–
303.15 K, m1 = 0.03819	–	–	1515.4
303.15 K, m1 = 0.03995	0.361	–	–
303.15 K, m1 = 0.0406	–	–	1515.5
303.15 K, m1 = 0.04173	0.373	–	–
303.15 K, m1 = 0.04332	–	–	1515.8
303.15 K, m1 = 0.0437	0.385	–	–
303.15 K, m1 = 0.04561	0.393	–	–
303.15 K, m1 = 0.04614	–	–	1516
303.15 K, m1 = 0.0476	0.401	–	–
303.15 K, m1 = 0.04986	0.409	–	–
303.15 K, m1 = 0.05209	0.416	–	–
303.15 K, m1 = 0.05436	0.423	–	–
303.15 K, m1 = 0.05515	–	–	1516.2
303.15 K, m1 = 0.05698	0.43	–	–
303.15 K, m1 = 0.0591	0.436	–	–
303.15 K, m1 = 0.06148	0.443	–	–
303.15 K, m1 = 0.06396	–	–	1516.2
303.15 K, m1 = 0.07815	–	–	1516.2
303.15 K, m1 = 0.122	–	–	1516.1
303.15 K, m1 = 0.1726	–	–	1516
303.15 K, m1 = 0.2247	–	–	1516
303.15 K, m1 = 0.2539	–	–	1515.9
